How the values were obtained:
GDNF = GDNF content of sciatic nerve of KKAy mice fed compound, measured by ELISA; format: in vivo, mouse; settings: 17 week-old female KKAy mice, powder feed containing 0.01% of compound for 7 weeks
Protocol: 17 week-old female KKAy mice (n=10-12) were maintained for 7 weeks on a powder feed (CRF-1, manufactured by Oriental Yeast Co., Ltd.) containing 0.01% of compound (5). Then, sciatic nerve of the mouse was taken and stored at −80° C., until use for the measurement (ca. 10 months).
The stored sciatic nerve was ultrasonicated in a 20-fold volume of a homogenized buffer (0.1 M tris hydrochloride buffer containing 1M sodium chloride, 2% BSA, 2 mM EDTA, 80 trypsin unit/L of aprotinin, 0.02% sodium azide, pH 7.6) and insoluble materials were separated by centrifugation (15,000 rpm, 30 min). The GDNF content of the supernatant was measured by the following ELISA method.
Thus, an anti-hGDNF goat antibody (100 μg/ml) (Genzyme-Techne) was distributed in 10-μl portions in the wells of 96-well round bottom plates and antibody adsorption was allowed to proceed by 2 hours incubation at room temperature. After removing the antibody, each well was washed three times with a washing solution. […] After washing, 30 μl of 4-methylumbelliferyl-β-D-galactoside (produced by Sigma) (10 μg/ml) was added to the substrate, the reaction was allowed to proceed at room temperature for 4 hours and then terminated by addition of 130 μl of 0.1 M glycine-sodium hydroxide buffer (pH 10.3), and the fluorescent intensity of the 4-methylumbelliferone produced was determined (Ex: 360 nm; Em: 450 nm). […]

GDF-15 = GDF-15 expression in dorsal root ganglion of STZ diabetic neuropathy rats, real time quantitative RT-PCR; format: in vivo, rat; settings: STZ (70 mg/kg) male SD rats, 10 mg/kg body weight/day orally for 4 months
Protocol: Streptozotocin (STZ) was administered to 6-week-old male SD rats (n=5-8) at 70 mg/kg to prepare diabetic neuropathy models. Starting from 4 months of the STZ administration, compound (5) was orally administered to the rats for 4 months at the dose of 10 mg/kg body weight/day. Then, dorsal root ganglion of the rats was removed, treated with ISOGEN solution (NIPPON GENE CO., LTD.) and the total RNA was extracted.
Using the obtained total RNA, a primer depicted in 5′-ACTGCATGCCAACCAGAGC-3′ (SEQ ID:1) and a primer depicted in 5′-[…]-3′ (SEQ ID:2), which were prepared based on the reported mRNA sequence of GDF-15, and a fluorescent probe having a GDF-15 specific sequence, […] (SEQ ID:3), and acidic ribosomal phosphoprotein PO as an endogenous control, a real time quantitative RT-PCR (Applied Biosystems) was performed.

left sciatic nerve = test: Maximum distance of nerve extension (evoked potential) after sciatic nerve transection in STZ diabetic neuropathy rats; format: in vivo, rat; settings: left sciatic nerve transected, 10 mg/kg body weight/day orally for 5 weeks
Protocol: Streptozotocin (STZ, 70 mg/kg) was intravenously injected to 6-week-old male SD rats (n=9-10) to prepare diabetic neuropathy models. After 2 weeks of the STZ administration, the left sciatic nerve of the rats was transected under anesthesia, and compound (5) was orally administered at the dose of 10 mg/kg body weight/day for 5 weeks. After the completion of the administration, the rats were anesthetized, and the distance (maximum distance of extension) from the nerve transection site to the detectable site was measured for evoked potential using a device detecting evoked potential [Neuropack 2, manufactured by NIHON KOHDEN CORPORATION]. As a result, the maximum extension of the compound (5) administration group was extended by 2.4 times as compared to that of the compound (5) non-administration group (control group).

SMILES: Cc1ccccc1OCCCc1oc(-n2ccnc2C)nc1-c1ccc(Cl)cc1 [compound (5), 4-(4-chlorophenyl)-2-(2-methyl-1-imidazolyl)-5-[3-(2-methylphenoxy)propyl]oxazole]
- increase of GDNF content in the sciatic nerve as compared to the control group (GDNF): 87.9%
- increase of GDF-15 expression level as compared to non-administration group (control group) (GDF-15): 135%
- maximum extension (distance from nerve transection site to site with detectable evoked potential) relative to control group (left sciatic nerve; STZ (70 mg/kg i.v.) male SD rats): 2.4 times
- effect of neuroneogenesis and of restoring nerve function (left sciatic nerve; STZ male SD rats): an effect of neuroneogenesis and an effect of restoring nerve function were observed
